{"source": "patent US7129232B2", "about": "“Cephem compounds” (Astellas Pharma Inc., priority 2002, dated 2006)", "system": "Pseudomonas aeruginosa FP 1380", "assay": "In vitro antibacterial activity (MIC) by the two-fold agar-plate dilution method", "assay_type": "cell-based", "conditions": "test strain Pseudomonas aeruginosa FP 1380, heart infusion agar, incubation at 37° C. for 20 hours; for MIC: FP1380, read-out: MIC (minimal inhibitory concentration)", "experimental": "In vitro antibacterial activity was determined by the two-fold agar-plate dilution method as described below.\nOne loopful of an overnight culture of each test strain in Trypticase-soy broth (10^6 viable cells per ml) was streaked on heart infusion agar (HI-agar) containing graded concentrations of representative test compound, and the minimal inhibitory concentration (MIC) was expressed in μg/ml after incubation at 37° C. for 20 hours."}
{"smiles": "CC(C)(O/N=C(\\C(=O)N[C@@H]1C(=O)N2C(C(=O)[O-])=C(C[n+]3ccccc3)CS[C@H]12)c1csc(N)n1)C(=O)O", "note": "[Ceftazidime, reference compound]", "values": [{"measurement": "MIC", "value": 128, "unit": "µg/mL"}]}
{"smiles": "CC(C)(O/N=C(\\C(=O)N[C@@H]1C(=O)N2C(C(=O)[O-])=C(C[n+]3cc(NC(=O)CCN)c4n3CCN4)CS[C@H]12)c1nsc(N)n1)C(=O)O", "note": "[Compound (a), 7β-[(Z)-2-(5-amino-1,2,4-thiadiazol-3-yl)-2-(1-carboxy-1-methylethoxyimino)acetamido]-3-[7-(3-aminopropionamido)-2,3-dihydro-5-(1H-imidazo[1,2-b]pyrazolio)]methyl-3-cephem-4-carboxylate]", "values": [{"measurement": "MIC (minimal inhibitory concentration)", "value": 2, "unit": "µg/mL"}]}
{"smiles": "Cn1c(N)c(NC(=O)CCN)c[n+]1CC1=C(C(=O)[O-])N2C(=O)[C@@H](NC(=O)/C(=N\\OC(C)(C)C(=O)O)c3nsc(N)n3)[C@H]2SC1", "note": "[Compound (b), 7β-[(Z)-2-(5-amino-1,2,4-thiadiazol-3-yl)-2-(1-carboxy-1-methylethoxyimino)acetamido]-3-[3-amino-4-(3-aminopropionamido)-2-methyl-1-pyrazolio]methyl-3-cephem-4-carboxylate]", "values": [{"measurement": "MIC", "value": 1, "unit": "µg/mL"}]}
{"smiles": "Cn1c(N)c(NC(=O)CN)c[n+]1CC1=C(C(=O)O)N2C(=O)[C@@H](NC(=O)/C(=N\\OC(C)(C)C(=O)O)c3nsc(N)n3)[C@H]2SC1.O=S(=O)([O-])O", "note": "[Compound (c), 7β-[(Z)-2-(5-amino-1,2,4-thiadiazol-3-yl)-2-(1-carboxy-1-methylethoxyimino)acetamido]-3-[3-amino-4-(aminoacetyl)amino-2-methyl-1-pyrazolio]methyl-3-cephem-4-carboxylic acid hydrogen sulfate]", "values": [{"measurement": "MIC", "value": 2, "unit": "µg/mL"}]}
{"smiles": "Cn1c(N)c(NC(=O)NCCN)c[n+]1CC1=C(C(=O)O)N2C(=O)[C@@H](NC(=O)/C(=N\\OC(C)(C)C(=O)O)c3nsc(N)n3)[C@H]2SC1.O=S(=O)([O-])O", "note": "[Compound (d), 7β-[(Z)-2-(5-amino-1,2,4-thiadiazol-3-yl)-2-(1-carboxy-1-methylethoxyimino)acetamido]-3-{3-amino-4-[3-(2-aminoethyl)ureido]-2-methyl-1-pyrazolio}methyl-3-cephem-4-carboxylic acid hydrogen sulfate]", "values": [{"measurement": "MIC", "value": 2, "unit": "µg/mL"}]}
{"smiles": "Cn1c(N)c(NC(=N)N)c[n+]1CC1=C(C(=O)O)N2C(=O)[C@@H](NC(=O)/C(=N\\OC(C)(C)C(=O)O)c3nsc(N)n3)[C@H]2SC1.O=S(=O)([O-])O", "note": "[Compound (e), 7β-[(Z)-2-(5-amino-1,2,4-thiadiazol-3-yl)-2-(1-carboxy-1-methylethoxyimino)acetamido]-3-(3-amino-4-guanidino-2-methyl-1-pyrazolio)methyl-3-cephem-4-carboxylic acid hydrogen sulfate]", "values": [{"measurement": "MIC", "value": 1, "unit": "µg/mL"}]}
